# In patent publication US20130079364A1, “Peripheral Opioid Agonists and Peripheral Opioid Antagonists” (SIGNATURE THERAPEUTICS, INC., priority 2010, published 2013):
# Where two headings read alike, the source gives them in different places.
# Assays:
# human μ-opioid receptor [1] = molecular target: T1, human μ-opioid receptor (Homo sapiens, UniProt P35372); assay: In vitro human μ-opioid receptor antagonist cellular functional assay (cAMP, HTRF); assay type: cell-based; conditions: for EC50: CHO cells expressing human μ-opioid receptor
# T1 construct: expressed in transfected cells; host or cells: CHO (Chinese hamster ovary) cells
# T1 sequence (P35372 whole entry): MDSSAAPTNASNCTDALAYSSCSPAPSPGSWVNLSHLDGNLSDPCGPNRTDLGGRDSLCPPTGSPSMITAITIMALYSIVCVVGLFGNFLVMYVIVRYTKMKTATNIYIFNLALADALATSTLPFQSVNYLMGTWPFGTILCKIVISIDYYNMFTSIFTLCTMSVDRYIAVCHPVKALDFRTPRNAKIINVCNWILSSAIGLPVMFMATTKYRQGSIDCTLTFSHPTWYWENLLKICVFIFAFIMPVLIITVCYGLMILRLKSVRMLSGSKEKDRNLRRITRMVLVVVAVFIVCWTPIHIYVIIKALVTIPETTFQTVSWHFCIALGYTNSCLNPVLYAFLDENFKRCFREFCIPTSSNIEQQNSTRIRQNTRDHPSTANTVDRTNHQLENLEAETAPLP
# Text: (§1) This Example measures the ability of certain compounds of the present disclosure to effect an agonist or antagonist response when exposed to recombinant human μ-opioid receptor expressed in CHO cells.
# (§2) The general procedure follows the protocol described by Wang, J.-B., Johnson, P. S., Perscio, A. M., Hawkins, A. L., Griffin, C. A. and Uhl, G. R. (1994). FEBS Lett., 338: 217-222. More specifically, the assays included each of the compounds indicated in Table 1 and recombinant Chinese hamster ovary (CHO) cells expressing the human μ-opioid receptor on their cell surfaces. The control reaction included 1 μM DAMGO. The reaction mixtures were incubated at 37° C. for 10 min, and the reaction product was cyclic AMP (cAMP). The samples were submitted to homogeneous time resolved fluorescence (HTRF®). EC50 values (concentration producing a half-maximal specific response) were determined by non-linear regression fit using the Hillplot software.
# [2] = Plasma and cerebrospinal fluid penetration following IV administration to rats; conditions: for Compound conc. in CSF / Compound conc. in plasma / Plasma/CSF partitioning coefficient / concentration at 2 min: rats; for concentration at 2 min: male, Sprague Dawley, rat, in vivo, iv, 10 mg/kg, Compound conc. in CSF
# CNS opioid receptors = assay: Rat tail flick latency assay, morphine induced analgesia; assay type: in vivo, Sprague Dawley rats; conditions: antagonist subcutaneously 70 min after 5 mg/kg morphine; Compound AN-1, AN-6 0.3 mg/kg, naltrexone 1.8 mg/kg; FIG. 8
# Method: A rat tail flick latency assay (see, e.g., Tejwani G et al., 2002, Anesth Analg 94, 1542-1546) was used to determine whether peripheral opioid antagonists of the embodiments were capable of effecting antagonist activity at opioid receptors in the central nervous system. In such an assay, the tails of rats are exposed to a noxious stimulus, such as heat, and tail withdrawal latency is measured. The latency (i.e., time between exposure and reaction) is an indication of the amount of pain experienced by the rat.
# In this study, the tails of healthy male Sprague Dawley rats (5 per group) were painted with India ink (i.e., a 6-cm portion, starting at the tip). The rats were then placed in Broome Restrainers and allowed to acclimate for at least 15 min. At the conclusion of the acclimation period, baseline tail withdrawal latencies (baseline latency) were measured by exposing the rats to a focused light beam of 80 volts at a position 6.5 cm above the tail until the rats flicked their tail out of the path of the light beam. This step was repeated twice for each rat, in two spots, i.e., 2 cm and 4 cm from the tip of the tail. The responses were averaged and used as a baseline latency value for comparison to post-drug treatment latency values.
# human μ-opioid receptor [3] = molecular target: T1, human μ-opioid receptor; assay: cell-based; conditions: for EC50: CHO cells expressing human μ-opioid receptor, read-out: Agonist EC50
# Text: as §1, §2
# [4] = Pharmacokinetics following PO administration to rats (plasma, HPLC/MS); conditions: male, Sprague Dawley, rat, 20 mg/kg
# Method: (§3) At specified time points, blood samples were drawn, harvested for plasma via centrifugation at 5,400 rpm at 4° C. for 5 min, and 100 microliters (μl) plasma transferred from each sample into a fresh tube containing 2 μl of 50% formic acid. The tubes were vortexed for 5-10 seconds, immediately placed in dry ice and then stored in a −80° C. freezer until analysis by HPLC/MS.
# as §3, with “μl” for “microliters (μl)”
# as §3, with “μl” for “microliters (μl)”
# as §3, with “μl” for “microliters (μl)”
# [5] = Pharmacokinetics following IV administration to rats (plasma, HPLC/MS); conditions: male, Sprague Dawley, rat
# [6] = male, Sprague Dawley, rat, in vivo, iv, 10 mg/kg
# inflammatory pain = assay: Carrageenan-induced inflammatory paw model (Randall Selitto test); assay type: in vivo, Sprague-Dawley rats; conditions: 200 mg/kg Compound AG-2 oral gavage three hours after carrageenan; FIG. 10
# Method: The carrageenan-induced inflammatory paw model (see, e.g., Bileviciute-Ljungar I et al, 2006, J Pharmacol Exp Ther 317, 220-227) was used to assess the ability of peripheral opioid agonist Compound AG-2 to reduce inflammatory pain, by measuring paw withdrawal latency in response to mechanical stimulation of the paw.
# Sprague-Dawley rats, fasted for approximately 18 hours prior to compound administration, were used for this study. Rats were injected in the plantar surface of the right hindpaw with 100 ul of a 1% carrageenan solution formulated in water (carrageenan available from Spectrum Chemical Manufacturing Corporation, Gardena, Calif.) three hours prior to compound administration, in order to elicit maximum edema formation. The hindpaw withdrawal latency to mechanical stimulation for each paw was tested before compound administration for use as a pre-treatment baseline, and at specific time points after compound administration using the Randall Selitto test (instrument available from IITC Inc. Life Science, Woodland Hills, Calif.). Briefly, the hindpaw was pinched until the animal retracted its paw. The amount of force (in grams) required to elicit a withdrawal response was assessed. Two repeat measures were taken at each time point, and the averaged value from the inflamed paw was used to quantify the percentage of change from the pre-treatment baseline. […]
# [7] = IV 10 mg/kg of each compound, 2-min time point (Table 12)
# [8] = IV 10 mg/kg Compound AN-1, 2-minute time point
compound,measurement,setting,value
"CC(=O)N[C@H](CC(=O)O)C(=O)NCCN(C)C(=O)OC1=CC[C@@]2(O)C3Cc4ccc(O)c5c4[C@@]2(CCN3CC2CC2)[C@H]1O5 [Compound AN-7, N-(naltrexone-6-enol-carbonyl-methylamino)ethylamine-D-aspartic acid-acetate]",EC50,"human μ-opioid receptor [1]; Antagonist EC50, Table 15, Example 24",300 nM
same,NTX/Compound AN-7 relative potency,"human μ-opioid receptor [1]; EC50 at the human μ-opioid receptor, naltrexone to Compound AN-7",8.6
same,Compound conc. in CSF,[2]; [7],462 ng/mL
same,Compound conc. in plasma,[2]; [7],"76,600 ng/mL"
same,Plasma/CSF partitioning coefficient,[2]; [7],166
"CN(CCNC(=O)[C@@H](CCCCN)NC(=O)CC(=O)O)C(=O)OC1=CC[C@@]2(O)C3Cc4ccc(O)c5c4[C@@]2(CCN3CC2CC2)[C@H]1O5 [Compound AN-6, N-(naltrexone-6-enol-carbonyl-methylamino)ethylamine-D-lysine-malonic acid]","effect on morphine induced analgesia (% MPE, tail flick)",CNS opioid receptors,no inhibition of analgesia
same,Compound conc. in CSF,[2]; [7],95.0 ng/mL
same,Compound conc. in plasma,[2]; [7],"79,400 ng/mL"
same,Plasma/CSF partitioning coefficient,[2]; [7],836
"CN(CCNC(=O)[C@@H](CCCNC(=N)N)NC(=O)CC(=O)O)C(=O)OC1=CCC2C3Cc4ccc(O)c5c4[C@@]2(CCN3C)[C@H]1O5 (stereo partly drawn) [Compound AG-4, N-(hydromorphone-6-enol-carbonyl-methyl-amino)ethylamine-D-arginine-malonic acid]",HM/Compound AG-4 relative potency,"human μ-opioid receptor [3]; EC50 at the human μ-opioid receptor, hydromorphone to Compound AG-4",16.1
same,EC50,"human μ-opioid receptor [3]; Table 15, Example 24",37 nM
"CN(CCNC(=O)[C@@H](CCCNC(=N)N)NC(=O)CC(=O)O)C(=O)OC1=CC[C@@]2(O)[C@H]3Cc4ccc(O)c5c4[C@@]2(CCN3CC2CC2)[C@H]1O5 [Compound AN-1, N-(naltrexone-6-enol-carbonyl-methylamino)ethylamine-D-arginine-malonic acid]",AUC,[4],139 ± 32 ng·h/mL
same,Cmax,[4],41 ± 13 ng/mL
same,Tmax,[4],45 ± 17.4 min
same,"effect on morphine induced analgesia (% MPE, tail flick)",CNS opioid receptors,no inhibition of analgesia
same,EC50,"human μ-opioid receptor [1]; Antagonist EC50, Table 1, Example 9, 37° C. 10 min",180 nM
same,NTX/Compound AN-1 relative potency,"human μ-opioid receptor [1]; EC50 at the human μ-opioid receptor, naltrexone to Compound AN-1",6.0
same,relative plasma/CSF partitioning coefficient of Compound AN-1 to naltrexone,[2]; 620/9.6,about 65
same,Compound conc. in CSF,[2]; [8],74.7 ng/mL
same,Compound conc. in plasma,[2]; [8],"46,300 ng/mL"
same,Plasma/CSF partitioning coefficient,[2]; [8],620
same,Cmax,[5]; 10 mg/kg,46300 ng/mL
"C=CCN1CC[C@]23c4c5ccc(O)c4O[C@H]2C(OC(=O)N(C)CCNC(=O)[C@@H](CCCNC(=N)N)NC(=O)CC(=O)O)=CC[C@@]3(O)C1C5 [Compound AN-4, N-(naloxone-6-enol-carbonyl-methylamino)ethylamine-D-arginine-malonic acid]",Compound conc. in CSF,[2]; [7],101 ng/mL
same,Compound conc. in plasma,[2]; [7],"49,200 ng/mL"
same,Plasma/CSF partitioning coefficient,[2]; [7],487
"COc1ccc2c3c1O[C@H]1C(OC(=O)N(C)CCNC(=O)[C@@H](CCCNC(=N)N)NC(=O)CC(=O)O)=CC[C@@]4(O)[C@@H](C2)N(C)CC[C@]314 [Compound AG-2, N-(oxycodone-6-enol-carbonyl-methylamino)ethylamine-D-arginine-malonic acid]",Cmax,[4],46.1 ± 0.9 ng/mL
same,Tmax,[4],37.5 ± 15 min
same,OC/Compound AG-2 relative potency,human μ-opioid receptor [3],10.9
same,EC50,"human μ-opioid receptor [3]; Table 1, Example 9, 37° C. 10 min",850 nM
same,Compound conc. in CSF,[6],22.8 ng/mL
same,Compound conc. in plasma,[6],"28,600 ng/mL"
same,Plasma/CSF partitioning coefficient,[6],"1,254"
same,increase in pain tolerance compared to the untreated rats,inflammatory pain,approximately 50%
same,Cmax,[5]; 2 mg/kg,3410 ng/mL
"O=C1CC[C@@]2(O)[C@H]3Cc4ccc(O)c5c4[C@@]2(CCN3CC2CC2)[C@H]1O5 [Naltrexone, naltrexone, reference compound]",Compound conc. in plasma,[6],9.17 ng/mL
same,"effect on morphine induced analgesia (% MPE, tail flick)",CNS opioid receptors,rapid inhibition of analgesia
same,concentration at 2 min,[2]; [8],7.44 ng/mL
same,concentration at 2 min,"[2]; IV 10 mg/kg Compound AN-3, 2-minute time point",0.813 ng/mL
same,Compound conc. in plasma,[2]; [8],71.1 ng/mL
